This is an account of results in article PMC9953701 (Biomedicines, 2023).

Data set [1] deals with Bacillus subtilis CCUG 163BT. The data set is classed as cell-based. The protocol: (§1) The three bacterial strains—Escherichia coli ATCC 25922, Pseudomonas aeruginosa ATCC 27853, and Staphylococcus aureus ATCC 29213—as well as the fungal strain Candida albicans ATCC 90028 were provided by the Department of Clinical Bacteriology, Lund University Hospital. Bacillus subtilis CCUG 163B^T and Bacillus cereus CCUG 7414^T were obtained from the Department of Molecular Sciences, Swedish University of Agricultural Sciences.
(§2) Antimicrobial activities of the peptides were evaluated using the two-step microdilution assay, which is designed for testing AMPs without activity-inhibiting components. Briefly, bacteria were grown to the mid-logarithmic phase at 37 °C in 3% (w/v) tryptic soy broth (TSB) (Merck KGaA, Darmstadt, Germany). The microbial culture was washed twice by centrifugation and resuspension in 10 mM Tris buffer (pH 7.4 at 37 °C, adjusted by HCl). The microbial suspension was quantified by OD600, diluted, and transferred to 96-well untreated polystyrene microplates prepared with 2-fold serial dilutions of the peptides using 50,000 bacteria per well (all dilutions in Tris buffer). These were incubated for 5 h at 37 °C, after which 5 µL of 20% (w/v) TSB was added to each well and the microplates were re-incubated for an additional 6–12 h (depending on the growth rate of each organism). All MICs presented are the medians from triplicate experiments performed independently.

Data set [2] deals with Bacillus subtilis CCUG 163BT. It counts as cell-based.
From the text: as §1
(§3) The standard broth microdilution assay was utilized to assess the MIC of designed peptides according to the guidelines of the Clinical and Laboratory Standards Institute (CLSI). Briefly, bacteria were grown in unbuffered Mueller–Hinton Broth (MHB, VWR International, Leuven, Belgium) as well as buffered (containing 50 mM NaHCO3) medium to the mid-logarithmic phase and were quantified by OD600. The bacterial suspension was diluted in the same medium to reach a final density of 1 × 10^6 colony-forming unit per milliliter (CFU/mL). A volume of 50 µL of the bacterial suspension was added to 96-well plates containing 50 µL of MHB in the absence (viability control) or the presence of the peptides at different concentrations (0.625–80 µM). […] MIC values were derived from 3 sets of independent experiments with different bacterial cultures.
This is another data set of the same source.

The subject of data set [3] is Bacillus cereus CCUG 7414T. The data set is classed as cell-based.
From the text: as §1, §3

Data set [4] relates to Bacillus cereus CCUG 7414T. The data set is classed as cell-based. The note with it: B. cereus; TSB, Tryptic Soy broth (rich media, unbuffered).
The test system of data set [5] is Bacillus subtilis CCUG 163BT. It counts as cell-based. The settings on record: B. subtilis; TSB, Tryptic Soy broth (rich media, unbuffered).
For data set [6] the following is noted: cited from earlier work. The protocol:
One of the major limitations of AMPs for clinical use is their inactivation by both endogenous human proteases and proteases secreted from invading microbes. From our previous studies, it was evident that KR-12 and truncated analogs degrade within 10 min in diluted human serum. More recently, we have shown that the KR-12 cyclic dimer peptides were stable for up to 6 h in diluted human serum but the recovery of LL-37 was very low during the precipitation step of the assay, either due to binding of LL-37 with serum components or rapid degradation. We also compared the stability pro ...

For data set [7], the target named is T1, aureolysin from S. aureus (Staphylococcus aureus, UniProt P81177).
T1 construct: purchased
The data set is described as follows: Stability in the presence of the protease aureolysin. It counts as in vitro ADME. The settings on record: peptide:enzyme 200:1, 37 °C, RP-HPLC-MS. As to the method:
Peptide stability was also assayed in commercially available Gram-positive, S. aureus protease, aureolysin. […] All the samples were then incubated at 37 °C at different incubation times. The reaction was quenched by acidifying with 5 µL of 0.1% formic acid. The samples were analyzed on MS coupled to RP-HPLC.

Data set [8] has as its system human red blood cells (RBCs). Nature of the data set: Hemolysis assay. It counts as cell-based. The note with it: human RBCs 0.25% in PBS pH 7.4, 80 μM peptide (highest test concentration), 1 h, 37 °C, absorbance 405 nm, relative to 1% Triton X-100. As to the method:
The hemolytic assay was conducted by preparing a stock solution of 320 μM peptides in MilliQ water and serially diluted in PBS to give 100 μL test solutions in a 96-well U-bottom microtiter plate (Nunc). Human-type RBCs (red blood cells) were collected from the donor, washed with PBS (pH 7.4) three times, and centrifuged at 1500× g for 60 s. A pellet of RBCs was resuspended to 0.25% (v/v) solution in PBS (pH 7.4). A 100 μL 0.25% suspension of washed RBCs in PBS was dispensed into each well containing serially diluted peptide solutions and incubated at 37 °C for 1 h. The 96-well plate was centrifuged at 150× g for 5 min and aliquots of 100 μL were transferred to a 96-well U-bottomed microtiter plate (Falcon) and the absorbance was measured at 405 nm with an automatic Multiskan Ascent plate reader (Labsystems). The amount of hemolysis was calculated as the percentage of maximum lysis (1% Triton X-100 control) after adjusting for minimum lysis (PBS control).

Data set [9] concerns Salmonella enterica serovar Typhimurium DA6192 wild type and LL-37-resistant mutants (waaY, phoP). The data set is described as follows: MIC against LL-37-resistant strains in buffer conditions. It counts as cell-based. Details: unit not given here. The settings on record: 20 mM sodium phosphate buffer with 0.1% TSB, 16 to 20 h, 37 °C. As to the method:
(§4) The LL-37 resistant mutants (DA22427 and DA23307) used in this study were derived from Salmonella enterica serovar Typhimurium DA6192, wild-type and cyclotides-resistant mutants (DA54114 and DA57107) were derived from E. coli MG1655 (wild type) and were kindly provided by Department of Medical Biochemistry and Microbiology, Uppsala University.
(§5) MIC measurements were performed in 20 mM sodium phosphate buffer (PBS), supplemented with 0.1% TSB in 96-well plates (round bottom, Nunc A/S, Roskilde, Denmark) in a total volume of 100 µL. The overnight cultures were diluted 5 × 10^5 CFU/mL in the same medium and 90 µL was transferred into the plates containing 10 µL of 2-fold diluted peptides. […] At least two independent experiments were performed with two technical replicates. In cyclotides, resistant mutant average MIC was reported.

Data set [10] deals with Pseudomonas aeruginosa ATCC 27853. It counts as cell-based. The settings on record: ATCC 27853, 24 h.
From the text: as §1, §3

Data set [11] relates to Escherichia coli ATCC 25922. The data set is classed as cell-based. The note with it: ATCC 25922, 24 h.
From the text: as §1, §3

Data set [12] concerns E. coli MG1655 wild type and cyclotides-resistant mutants. The data set is described as follows: MIC against cyclotide-resistant strains in buffer conditions. It counts as cell-based, Escherichia coli. Details: unit not given here. The protocol:
as §4, §5

Data set [13] relates to Bacillus cereus CCUG 7414T. The data set is classed as cell-based. The settings on record: CCUG 7414, 5 h. The protocol: as §1, §2
The test system of data set [14] is aureolysin. The data set is described as follows: commercially available Gram-positive, S. aureus protease, aureolysin. The note with it: 37 °C, up to 24 h.
[15] abbreviates: S. typhimurium phoP LL-37-resistant mutant.
The mark [16] stands for this setting: S. typhimurium waaY LL-37-resistant mutant.
Setting [17] is: E. coli DA54114 cyclotide-resistant mutant, sodium phosphate buffer with 0.1% TSB, average MIC.
Where [18] appears, read: E. coli DA57107 cyclotide-resistant mutant, sodium phosphate buffer with 0.1% TSB, average MIC.
The mark [19] stands for this setting: E. coli WT (MG1655), 20 mM sodium phosphate buffer with 0.1% TSB, 16 to 20 h, 37 °C.

Where two headings read alike, the source gives them in different places. No end group written: not given here. Some results are limits rather than exact numbers.

T1 sequence (P81177 209-509): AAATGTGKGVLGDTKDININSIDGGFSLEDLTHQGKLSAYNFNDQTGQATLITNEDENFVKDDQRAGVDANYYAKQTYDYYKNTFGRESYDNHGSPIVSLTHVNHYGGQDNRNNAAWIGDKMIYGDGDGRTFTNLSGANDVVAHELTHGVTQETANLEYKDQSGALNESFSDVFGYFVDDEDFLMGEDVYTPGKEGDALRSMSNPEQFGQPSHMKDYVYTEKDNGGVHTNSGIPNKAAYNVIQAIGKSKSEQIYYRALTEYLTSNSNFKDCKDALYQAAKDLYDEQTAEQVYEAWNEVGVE

With `CC[C@H](C)[C@H](NC(=O)[C@H](CCCCN)NC(=O)[C@H](CCC(=O)O)NC(=O)[C@H](CCCCN)NC(=O)[C@H](CO)NC(=O)[C@H](CCCCN)NC(=O)[C@H](CCCNC(=N)N)NC(=O)[C@H](Cc1ccccc1)NC(=O)[C@H](Cc1ccccc1)NC(=O)[C@H](CC(=O)O)NC(=O)CNC(=O)[C@H](CC(C)C)NC(=O)[C@@H](N)CC(C)C)C(=O)NCC(=O)N[C@@H](CCCCN)C(=O)N[C@@H](CCC(=O)O)C(=O)N[C@@H](Cc1ccccc1)C(=O)N[C@@H](CCCCN)C(=O)N[C@@H](CCCNC(=N)N)C(=O)N[C@H](C(=O)N[C@H](C(=O)N[C@@H](CCC(N)=O)C(=O)N[C@@H](CCCNC(=N)N)C(=O)N[C@H](C(=O)N[C@@H](CCCCN)C(=O)N[C@@H](CC(=O)O)C(=O)N[C@@H](Cc1ccccc1)C(=O)N[C@@H](CC(C)C)C(=O)N[C@@H](CCCNC(=N)N)C(=O)N[C@@H](CC(N)=O)C(=O)N[C@@H](CC(C)C)C(=O)N[C@H](C(=O)N1CCC[C@H]1C(=O)N[C@@H](CCCNC(=N)N)C(=O)N[C@H](C(=O)N[C@@H](CCC(=O)O)C(=O)N[C@@H](CO)C(=O)O)[C@@H](C)O)C(C)C)[C@@H](C)CC)C(C)C)[C@@H](C)CC` [LL-37], the MIC in data set [1] (B. subtilis, Control: two-step microdilution assay in Tris buffer 10 mM without salts) was 1.25 µM; in [2] (B. subtilis, MHB, Muller-Hinton broth (rich media, unbuffered)), above 80 µM; in data set [3] (B. cereus, MHB, Muller-Hinton broth (rich media, unbuffered)), above 80 µM; in data set [4], above 80 µM; in data set [5], above 80 µM. Besides, in data set [6] (diluted human serum), the “recovery during the precipitation step of the serum stability assay” value is listed as “very low”. Moreover, the “time to hydrolysis of the Leu31-Val32 peptide bond by aureolysin” value in [7] is listed as at most 5 min. Also, in data set [8], the hemolysis was 19–23%.
As to KRIVKRIKAFLR [KR-12 (Q5K,D9A)], the MIC in [9] (S. typhimurium WT (DA6192)) is 10; in [9] (setting [15]), 10; in [9] (setting [16]), 10; in data set [1] (CCUG 163, 5 h) it was 1.25 µM; in data set [2] (CCUG 163, 24 h), above 80 µM; in data set [10], 10 µM. For the same compound, the MIC in data set [11] was 10 µM; in data set [3] (CCUG 7414, 24 h) it was above 80 µM; in [12] (setting [17]) it was 1; in data set [12] (setting [18]) it was 1; in data set [12] (setting [19]), 1.
Consider KRIVQRIKDFLR [KR-12], for which the MIC is 20 in data set [9] (S. typhimurium WT (DA6192)); 20 in [9] (setting [15]); 20 in data set [9] (setting [16]); 5 µM in [1] (CCUG 163, 5 h); 2.5 µM in data set [13]; above 80 µM in data set [2] (CCUG 163, 24 h). Besides, the MIC was above 20 µM in data set [10]; above 20 µM in [11]; above 80 µM in data set [3] (CCUG 7414, 24 h); 1 in data set [12] (setting [17]); 1 in data set [12] (setting [18]); 1 in [12] (setting [19]). In [6], the “time within which the peptide degrades in diluted human serum” value is at most 10 min.
In the case of Kalata B7, in [7], the “time for which the peptide was stable in aureolysin (stable for up to)” value is at least 24 h.
Turning to LLGDFFRKSKEKIGKEFKRIVQRIKDFLRNLVPRTES, the cleaved bond result in data set [14] is given as “Leu31-Val32, first_seen, within the first 5 min”.
